Experimental data taken from patent US20230122540A1, “SYSTEMS AND METHODS TO TRACK THE EVOLUTION OF SINGLE CELLS” (Genentech, Inc., priority 2020, published 2023).
Entries after “also recorded” stand apart in the source; their conditions may differ.

Key:
NCI-H1975 cells = assay: Clonogenic / CellTiter-Glo assay with allosteric degraders; assay type: cell-based, human; details: compared to osimertinib
Method: (§1) Clonogenic assay: Cells were seeded at desired densities in two to three replicates in 6-well plates and allowed to attach overnight. The following day cells were treated with the indicated compounds. Media containing the appropriate compounds was replenished every 48-72 hours. At the end of the assay, the cells were washed once with PBS, fixed and stained with crystal violet solution (Sigma Aldrich, HT90132) for 20 minutes, washed with water, and allowed to dry before scanning. For experiments shown in FIG. 18E erlotinib concentration were determined to match the cell viability effect to 1 μM GNE-069 in each cell line, so that 1 μM erlotinib was applied to PC-9 and HCC2935, and 100 nM erlotinib was applied to HCC4006 and HCC827. […]
(§2) Cell viability and cell death quantification: For experiments shown in FIGS. 24C, 27D, the indicated cells were seeded at desired densities in replicates in 24-well plates and allowed to attach overnight. […] At each media change, cell viabilities were quantified using CellTiter-Glo Luminescent Cell Viability Assay (Promega, G7572). […] Induction of cell death was quantified 24 h post-treatment using Caspase-Glo 3/7 Assay System (Promega, G8093) and cell survival were measured 72 h post-treatment using CellTiter-Glo Luminescent Cell Viability Assay (Promega, G7572). […]

PC9 cells [1] = assay: Anti-growth effects in PC9 cells (clonogenic assay, cell counting, Incucyte imaging); assay type: cell-based, human; details: 1 μM
Method: Compound dose matching: […] Clonogenic assay: Cells were seeded at desired densities in two to three replicates in 6-well plates and allowed to attach overnight. The following day cells were treated with the indicated compounds. Media containing the appropriate compounds was replenished every 48-72 hours. At the end of the assay, the cells were washed once with PBS, fixed and stained with crystal violet solution (Sigma Aldrich, HT90132) for 20 minutes, washed with water, and allowed to dry before scanning. […] For experiments shown in FIG. 27B, cells were treated with either DMSO or 1 μM ISRIB (Tocris Cat. No. 5284) for 24 h, and then co-treated with EGFR inhibitors for 8 days.

H1975 cells = assay: Crystal violet viability of H1975 cells, Osimertinib plus Degrader (Example 3); assay type: cell-based, human; details: 100 nM Osimertinib 4 hours, then + 1 uM Degrader 24 hours
Method: H1975 cells were treated first for 4 hours with 100 nM of the kinase inhibitor Osimertinib, then subjected to co-treatment with 100 nM Osimertinib+1 uM of Degrader for 24 hours.

PC9 cells [2] = assay: TraCe-seq experiment (barcoded PC9 cells, scRNA-seq on day four); assay type: cell-based, human; details: day four of treatment
Method: To conduct the TraCe-seq experiment, 600 PC9 cells carrying unique barcodes were randomly selected and these cells were expanded for ˜12 doublings to establish the starting population. Single cell transcriptional profiling on a fraction of this population at ˜30× coverage of the barcodes was performed to record the baseline transcriptional programs and relative clonal abundance. 200K of these cells were seeded and were treated with either erlotinib, GNE-104, or GNE-069. Cells were harvested on day four and profiled by 10×scRNA-seq to determine the relative fitness of each clone and capture treatment-induced transcriptional changes (FIG. 17D).
TraCe-Seq barcode assignment: TraCe-Seq barcode recovery from scRNA-Seq FASTQs was performed using Salmon (v. 0.1.1). Briefly, custom augmented Salmon index was created using human reference GRCh38 and transgene GFP fused to one of 100,000 30-nt GC-optimized barcode in library. Transcript expression of demultiplexed per-cell FASTQs were then quantified using custom Salmon index. Cells with single GFP-barcode expression were assigned to corresponding TraCe-Seq barcode. Cells with multiple TraCe-Seq barcodes expressed were assigned to a single TraCe-Seq barcode if expression one TraCe-Seq was 3-fold higher than other detected TraCe-Seq barcodes.

EGFR = target: T1, EGFR (Homo sapiens, UniProt P00533, DEL746-750); assay: Western blot of EGFR and pEGFR in HCC827 cells; assay type: cell-based
T1 construct: does-dependent EGFR degradation induced by GNE-104 in HCC827 cells; endogenous in cells; host or cells: HCC827
Method: Immunoblotting: Immunoblotting performed using standard methods. Cells were briefly washed in ice-cold PBS and lysed in the following lysis buffer (1% NP40, 50 mM Tris, pH 7.8, 150 mM NaCl, 5 mM EDTA) plus protease inhibitor mixture (Complete mini tablets, Roche Applied Science, 11836170001) and phosphatase inhibitor mix (Thermo Fisher Scientific, 78420). Lysates centrifuged at 15,000 rpm for 10 minutes at 4° C. and the protein concentration determined by BCA (Thermo Fisher Scientific, 23227). Equal amounts of protein were resolved by SDS-PAGE on NuPAGE, 4-12% Bis-Tris Gels (Thermo Fisher Scientific, WG-1403) and transferred to nitrocellulose membrane (Bio-Rad, 170-4159). Membranes were blocked in blocking buffer (Li-Cor, 927-40000), incubated overnight with the indicated primary antibodies and analyzed by the addition of secondary antibodies IRDye 680LT Goat anti-Mouse IgG (Li-Cor, 926-68050) or IRDye 800CW Goat anti-Rabbit IgG (Li-Cor, 926-32211). The membranes were visualized on a Li-Cor Odyssey CLx Scanner. Anti-EGFR (MI-12-1) purchased from Medical and Biological Labs, anti-pEGFR (3777), anti β-Tubulin (2146) and anti-β-Actin (4970) purchased from Cell Signaling Technology. IR-conjugated secondary antibodies Goat anti-Mouse 680LT (926-68020), and Goat anti-Rabbit 800CW (926-32211) purchased from Li-Cor.

[3] = test system: EGFR-mutant lung cancer cell lines; assay: Clonogenic and CellTiter-Glo assay in EGFR-mutant lung cancer cell lines; assay type: cell-based, human; details: multiple EGFR-mutant lung cancer cell lines, vs erlotinib or GNE-069
Method: as §1, §2

PC9 cells [4] = assay: scRNA-seq gene expression in barcoded PC9 cells (Example 3); assay type: cell-based, human
From the text: The above-described workflow was used to evaluate adaptation of mutated EGFR lung cancer cells to treatment strategies including EGFR kinase inhibition (Erlotinib) and EGFR protein degradation (Degrader G-104 or Degrader) using the PC9 (non-small cell lung carcinoma) cell line model. Six hundred PC9 cells containing unique barcodes were expanded separately for 12 days. The clones were then pooled into groups of cells with replicate barcodes and subjected to a first scRNA-seq on Day 1. Subsequently, the groups of cells were treated with either DMSO (vehicle control), Erlotinib, or Degrader. On Day 5 of the treatment, a second scRNA-seq was performed to evaluate an initial response of the cells to the treatments. Treatment with Erlotinib or Degrader was continued for approximately two more months. At the endpoint of the treatment, a final scRNA-seq was performed on the surviving cells. scRNA-seq data was analyzed with Next Generation Sequencing technologies, and barcode quantities were determined for both treatments, as illustrated in FIGS. 4A-4B.
Single cell RNA-seq data was further analyzed to evaluate how Degrader resistant clones respond differently to Erlotinib versus Degrader. […] Compared to Degrader, Erlotinib activated genes involved in ER protein processing pathways.
Thus, PC9 cells were treated with either siNTC+Erlotinib, siEGFR+Erlotinib, or siEGFR+DMSO, then analyzed for ISR and MAPK genes after 72 hrs (via scRNA-seq), and assessed for cell viability at Day 6. […] Results shown in FIG. 11D illustrate decreased efficacy of Erlotinib when combined with siEGFR, as indicated by greater numbers of viable cells in the Erlotinib+siEGFR treatment group compared to treatment by only Erlotinib.

PC9 cells [5] = assay: Caspase-Glo 3/7 cell death assay, EGFRi+CCT020312; assay type: cell-based, human; details: Caspase-Glo 3/7, 24 h post-treatment
Method: Cell viability and cell death quantification: For experiments shown in FIGS. 24C, 27D, the indicated cells were seeded at desired densities in replicates in 24-well plates and allowed to attach overnight. The following day cells were treated with the indicated compounds. Media containing the appropriate compounds was replenished every 48 hours. At each media change, cell viabilities were quantified using CellTiter-Glo Luminescent Cell Viability Assay (Promega, G7572). For experiments shown in FIG. 191 and FIG. 29D, PC9 cells were seeded in replicates in 96-well plates and allowed to attach overnight. The following day cells were treated with the indicated compounds or compound combinations at the indicated concentrations. Induction of cell death was quantified 24 h post-treatment using Caspase-Glo 3/7 Assay System (Promega, G8093) and cell survival were measured 72 h post-treatment using CellTiter-Glo Luminescent Cell Viability Assay (Promega, G7572). CCT020312 was obtained from EMD Millipore (324879).

ATF4, CHOP, GADD34 = assay: qRT-PCR of pro-death genes downstream of ER stress; assay type: cell-based, human; details: PC9 and NCI-H1975 cells, day three
Method: RNA extraction and qRT-PCR: RNA was extracted using Qiagen RNeasy Plus kit following manufacturer's instruction. RNA was reverse transcribed using High-Capacity cDNA Reverse Transcription Kit (Thermo Fisher Scientific Cat. No. 4368814). qPCRs were performed using TaqMan™ Fast Advanced Master Mix (Thermo Fisher Scientific Cat. No. 4444557) on ABI QuantStudio 7 Flex Real-Time PCR Systems. HPRT1 was used as the internal control to quantify relative gene expression levels. Taqman probes were obtained from Thermo Fisher Scientific (Cat. No. 431182, 4448490). These probes were used in the study: ATF4 Hs00909569_g1, DDIT3/CHOP Hs00358796_g1, PPP1R15A/GADD34 Hs00169585_m1, SLC7A5 Hs01001183_m1, ETV4 Hs00385910_m1, SPRY4 Hs00540086_m1, DUSP6 Hs04329643_s1, HPRT1 Hs02800695_m1.

## O=C(Nc1nccs1)C(c1cc(F)ccc1O)N1Cc2ccccc2C1=O (centres unmarked) [EAI-045]
NCI-H1975 cells
  single agent anti-growth activity: very modest single agent activity

## C#Cc1cccc(Nc2ncnc3cc(OCCOC)c(OCCOCC#CC#CCOCC(=O)N[C@H](C(=O)N4C[C@H](O)C[C@@H]4C(=O)NCc4ccc(-c5scnc5C)cc4)C(C)(C)C)cc23)c1 [GNE-104, (2R,4R)-1-((S)-2-(2-((6-(2-((4-((3-Ethynylphenyl)amino)-7-(2-methoxyethoxy)quinazolin-6-yl)oxy)ethoxy)hexa-2,4-diyn-1-yl)oxy)acetamido)-3,3-dimethylbutanoyl)-4-hydroxy-N-(4-(4-methylthiazol-5-yl)benzyl)pyrrolidine-2-carboxamide]
PC9 cells [1]
  anti-growth effects (inhibiting cell growth): far less efficient in inhibiting cell growth compared to erlotinib and GNE-069; also recorded: less efficacious
H1975 cells
  effect on kinase inhibitor activity: attenuated kinase inhibitor activity
PC9 cells [2]
  reduction of absolute number and diversity of TraCe-seq barcodes: less effective in reducing both the absolute number and the diversity of TraCe-seq barcodes
EGFR
  phospho-EGFR levels: potently suppressed phospho-EGFR levels
EGFR; HCC827 cells
  EGFR degradation: significant dose-dependent degradation of EGFR
[3]
  anti-growth effect: reduced anti-growth effect
PC9 cells [4]; Day 5 of treatment
  ISR pathway / ATF4 and SLC7A5 expression: does not activate the ISR pathway
PC9 cells [4]; day 5 of treatment
  canonical MAPK target gene expression: strongly suppressed canonical MAPK target genes

## CCN(CC)CCC(=O)N1N=C(c2c(-c3ccccc3)c3cc(Br)ccc3[nH]c2=O)CC1c1ccc(Br)cc1 (centres unmarked) [CCT020312]
PC9 cells [5]
  cell death induction in combination with erlotinib or osimertinib: enhanced cell death induction
ATF4, CHOP, GADD34
  induction of ISR genes in combination with erlotinib or osimertinib: further boosted induction of ISR genes by erlotinib and osimertinib
